# Results from ChEMBL document CHEMBL5584353, “Design, Synthesis, and Biological Evaluation of Potent EZH2/LSD1 Dual Inhibitors for Prostate Cancer” (J Med Chem, 2024).
# The source made the active and inactive calls. The calls are words filed in the database; no cut-off is given here.
# Legend:
# [1] = molecular target: T1, Lysine-specific histone demethylase 1A (Homo sapiens, UniProt O60341); test: Inhibition of recombinant human LSD1 using Histone H3 as fluorometric substrate incubated for 30 mins by HRP based plate reader assay
# PC-3 [2] = test: Growth inhibition of human PC-3 cells incubated for 6 to 7 days by MTS assay; assay type: functional; details: time 6-7 day
# LNCaP [3] = test: Growth inhibition of human LNCaP cells incubated for 6 to 7 days by MTS assay; assay type: functional; details: time 6-7 day
# [4] = molecular target: T1, Lysine-specific histone demethylase 1A; test: Inhibition of LSD1 in human 22Rv1 cells assessed as upregulation of H3K4me2 expression at 1 to 5 uM incubated for 5 days by Western blotting analysis; assay type: cell-based; details: dose 1-5 µM, time 5.0 day
# [5] = molecular target: T1, Lysine-specific histone demethylase 1A; test: Inhibition of LSD1 in human PC-3 cells assessed as upregulation of H3K4me2 expression at 1 to 5 uM incubated for 5 days by Western blotting analysis; assay type: cell-based; details: dose 1-5 µM, time 5.0 day
# [6] = molecular target: T1, Lysine-specific histone demethylase 1A; test: Inhibition of LSD1 in human LNCaP cells assessed as upregulation of H3K4me2 expression at 1 to 5 uM incubated for 5 days by Western blotting analysis; assay type: cell-based; details: dose 1-5 µM, time 5.0 day
# CWR22R [7] = test: Induction of apoptosis in human 22Rv1 cells at 1 uM incubated for 5 days by Annexin V-FITC/PI staining based flow cytometric analysis (reference value: 8.97 %); assay type: functional; details: time 5 day
# CWR22R [8] = test: Induction of apoptosis in human 22Rv1 cells at 5 uM incubated for 5 days by Annexin V-FITC/PI staining based flow cytometric analysis (reference value: 8.97 %); assay type: functional; details: time 5 day
# PC-3 [9] = test: Induction of apoptosis in human PC-3 cells at 1 to 10 uM incubated for 5 days by Annexin V-FITC/PI staining based flow cytometric analysis; assay type: functional, cell-based; details: dose 1-10 µM, time 5.0 day
# LNCaP [10] = test: Induction of apoptosis in human LNCaP cells at 1 to 10 uM incubated for 5 days by Annexin V-FITC/PI staining based flow cytometric analysis; assay type: functional, cell-based; details: dose 1-10 µM, time 5.0 day
# PC-3 [11] = test: Induction of cell cycle arrest in human PC-3 cells assessed as accumulation of cells at G0/G1 phase incubated for 72 hrs by propidium iodide/RNase staining based flow cytometric analysis; assay type: functional
# CWR22R [12] = test: Induction of apoptosis in human 22Rv1 cells assessed as upregulation of cleaved caspase-3 expression incubated for 48 hr by Western blotting analysis; assay type: functional, cell-based
# CWR22R [13] = test: Antimigratory activity in human 22Rv1 cells assessed as upregulation of E-cadherin expression at 3 to 10 uM incubated for 48 hrs by Western blotting analysis; assay type: functional, cell-based; details: dose 3-10 µM
# PC-3 [14] = test: Antimigratory activity in human PC-3 cells assessed as upregulation of E-cadherin expression at 3 to 10 uM incubated for 48 hrs by Western blotting analysis; assay type: functional, cell-based; details: dose 3-10 µM
# PC-3 [15] = test: Antimigratory activity in human PC-3 cells assessed as downregulation of E-cadherin expression at 3 to 10 uM incubated for 48 hrs by Western blotting analysis; assay type: functional, cell-based; details: dose 3-10 µM
# LNCaP [16] = test: Antimigratory activity in human LNCaP cells assessed as upregulation of E-cadherin expression at 3 to 10 uM incubated for 48 hrs by Western blotting analysis; assay type: functional, cell-based; details: dose 3-10 µM
# [17] = Metabolic stability in Sprague-Dawley rat hepatocyte assessed as compound remaining at 20 uM by HPLC-MS/MS analysis; assay type: ADME, cell-based; details: hepatocytes, read-out: Stability
# [18] = Metabolic stability in Sprague-Dawley rat hepatocyte assessed as compound remaining at 20 uM incubated for 60 mins by HPLC-MS/MS analysis; assay type: ADME, cell-based; details: hepatocytes, read-out: Stability
# [19] = Metabolic stability in Sprague-Dawley rat hepatocyte assessed as compound remaining at 20 uM incubated for 180 mins by HPLC-MS/MS analysis; assay type: ADME, cell-based; details: hepatocytes, read-out: Stability
# [20] = Tmax in BALB/c mouse at 50 mg/kg,ip measured upto 24 hrs by HPLC-MS/MS analysis; assay type: ADME, organism-based; details: in vivo
# [21] = Cmax in BALB/c mouse at 50 mg/kg,ip measured upto 24 hrs by HPLC-MS/MS analysis; assay type: ADME, organism-based; details: in vivo
# [22] = Cmax in BALB/c mouse at 50 mg/kg,po measured upto 24 hrs by HPLC-MS/MS analysis; assay type: ADME, organism-based; details: in vivo
# [23] = AUC (0 to infinity) in BALB/c mouse at 50 mg/kg,ip measured upto 24 hrs by HPLC-MS/MS analysis; assay type: ADME, organism-based; details: in vivo
# [24] = Clearance in BALB/c mouse at 50 mg/kg,ip measured upto 24 hrs by HPLC-MS/MS analysis; assay type: ADME, organism-based; details: in vivo
# CWR22R [25] = test: Antitumor activity against human 22Rv1 cells xenografted in BALB/c mouse assessed as tumor growth inhibition at 80 mg/kg,ip administrated daily for 31 days relative to control; assay type: functional; details: 22Rv1, 744 h, time 31 day, read-out: TGI
# CWR22R [26] = test: Antitumor activity against human 22Rv1 cells xenografted in BALB/c mouse assessed as reduction in tumor weight at 80 mg/kg,ip administrated daily for 31 days; assay type: functional, organism-based; details: time 31.0 day
# [27] = Toxicity in BALB/c mouse xenografted with human 22Rv1 cells assessed as change in body weight at 80 mg/kg,ip administrated daily for 31 days; assay type: organism-based, CWR22R; details: in vivo, 744 h, time 31 day
# [28] = Toxicity in BALB/c mouse xenografted with human 22Rv1 cells assessed as liver morphological change at 80 mg/kg,ip administrated daily for 31 days; assay type: organism-based, CWR22R; details: in vivo, 744 h, time 31 day
# [29] = Toxicity in BALB/c mouse xenografted with human 22Rv1 cells assessed as spleen morphological change at 80 mg/kg,ip administrated daily for 31 days; assay type: organism-based, CWR22R; details: in vivo, 744 h, time 31 day
# [30] = molecular target: T1, Lysine-specific histone demethylase 1A; test: Inhibition of LSD1 in human LNCaP cells assessed as downregulation of AR expression incubated for 48 hrs by Western blotting analysis; assay type: cell-based
# [31] = molecular target: T1, Lysine-specific histone demethylase 1A; test: Inhibition of LSD1 in human 22Rv1 cells assessed as downregulation of AR expression incubated for 48 hrs by Western blotting analysis; assay type: cell-based
# [32] = molecular target: T1, Lysine-specific histone demethylase 1A; test: Inhibition of LSD1 in human LNCaP cells assessed as downregulation of AR-V7 expression at 1 to 20 uM incubated for 48 hrs by Western blotting analysis; assay type: cell-based; details: dose 1-20 µM
# [33] = molecular target: T1, Lysine-specific histone demethylase 1A; test: Inhibition of LSD1 in human 22Rv1 cells assessed as downregulation of AR-V7 expression at 1 to 20 uM incubated for 48 hrs by Western blotting analysis; assay type: cell-based; details: dose 1-20 µM
# LNCaP [34] = test: Synergistic antiproliferative activity against human LNCaP cells assessed as inhibition of cell growth at 6.25 to 100 uM incubated for 6 to 7 days in presence of enzalutamide by MTS assay; assay type: functional, cell-based; details: dose 6.25-100 µM, time 6-7 day
# PC-9 = test: Antiproliferative activity against human PC-9 cells assessed as inhibition of cell growth incubated for 6 to 7 days by MTS assay; assay type: functional, cell-based; details: time 6-7 day
# BT-549 = test: Antiproliferative activity against human BT-549 cells assessed as inhibition of cell growth incubated for 6 to 7 days by MTS assay; assay type: functional, cell-based; details: time 6-7 day
# PC-3 [35] = test: Antiproliferative activity against human PC-3 cells assessed as inhibition of cell growth incubated for 6 to 7 days by MTS assay; assay type: functional, cell-based; details: time 6-7 day
smiles,measurement,setting,value
CCN(c1cc(-c2ccc([C@@H]3C[C@H]3N(CC3CCOCC3)C(=O)OC(C)(C)C)cc2)cc(C(=O)NCc2c(C)cc(C)[nH]c2=O)c1C)C1CCOCC1 (racemic),IC50,[1],> 3 µM
same,GI50,PC-3 [2],1.04 µM
same,GI50,LNCaP [3],1.63 µM
same,inhibition,[4],Active
same,inhibition,[5],Active
same,inhibition,[6],Active
same,Activity,CWR22R [7],17.71%
same,Activity,CWR22R [8],30.97%
same,Activity,PC-3 [9],Active
same,Activity,LNCaP [10],Active
same,Activity,PC-3 [11],Dose-Dependent Effect
same,Activity,CWR22R [12],Dose-Dependent Effect
same,Activity,CWR22R [13],Active
same,Activity,PC-3 [14],Active
same,Activity,PC-3 [15],Active
same,Activity,LNCaP [16],Active
same,remaining at 20 µM,[17],100%
same,"remaining at 1 h, 20 µM",[18],84.3%
same,"remaining at 3 h, 20 µM",[19],70%
same,Tmax,[20],2 h
same,Cmax,[21],20600 ng/mL
same,Cmax,[22],7410 ng/mL
same,AUC(0-inf),[23],112 µg·h/mL
same,CL/F,[24],8.33 mL/min/kg
same,inhibition in vivo at 80 mg/kg,CWR22R [25],52.2%
same,Activity,CWR22R [26],Active
same,Activity,[27],Non-Toxic
same,Activity,[28],Non-Toxic
same,Activity,[29],Non-Toxic
same,inhibition,[30],Dose-Dependent Effect
same,inhibition,[31],Dose-Dependent Effect
same,inhibition,[32],Active
same,inhibition,[33],Active
same,Activity,LNCaP [34],Active
same,Activity,PC-9,Active
same,Activity,BT-549,Active
same,Activity,PC-3 [35],Active
